Measurements from ChEMBL document CHEMBL6087476, “Positive Charge-Concentrated Dimeric Lipopeptides with Enhanced Protease Resistance: A Potential Solution for Systemic Bacterial Infections” (J Med Chem, 2025).
≈ marks a conversion by molar mass, not a printed value. Calls of active or inactive are those of the source. The rule behind the calls is not given here.

Legend:
Escherichia coli [1] = assay: Antimicrobial activity against Escherichia coli ATCC 25922 assessed as increase in absorbance incubated for 20 to 22 hrs; format: functional; settings: time 20-22 hrs
Escherichia coli [2] = assay: Antimicrobial activity against Escherichia coli K88 assessed as increase in absorbance incubated for 20 to 22 hrs; format: functional; settings: time 20-22 hrs
Escherichia coli [3] = assay: Antimicrobial activity against Escherichia coli K99 assessed as increase in absorbance incubated for 20 to 22 hrs; format: functional; settings: time 20-22 hrs
Salmonella typhimurium [4] = assay: Antimicrobial activity against Salmonella typhimurium 7731 assessed as increase in absorbance incubated for 20 to 22 hrs; format: functional, Salmonella enterica subsp. enterica serovar Typhimurium; settings: Salmonella enterica, time 20-22 hrs
Salmonella typhimurium [5] = assay: Antimicrobial activity against Salmonella typhimurium 14028 assessed as increase in absorbance incubated for 20 to 22 hrs; format: functional, Salmonella enterica subsp. enterica serovar Typhimurium; settings: Salmonella enterica, time 20-22 hrs
Pseudomonas aeruginosa = assay: Antimicrobial activity against Pseudomonas aeruginosa 27853 assessed as increase in absorbance incubated for 20 to 22 hrs; format: functional; settings: time 20-22 hrs
Staphylococcus aureus [6] = assay: Antimicrobial activity against Staphylococcus aureus 29213 assessed as increase in absorbance incubated for 20 to 22 hrs; format: functional; settings: time 20-22 hrs
Enterococcus faecalis = assay: Antimicrobial activity against Enterococcus faecalis 29212 assessed as increase in absorbance incubated for 20 to 22 hrs; format: functional; settings: time 20-22 hrs
Staphylococcus aureus [7] = assay: Antimicrobial activity against Staphylococcus aureus 25923 assessed as increase in absorbance incubated for 20 to 22 hrs; format: functional; settings: time 20-22 hrs
[8] = test system: Staphylococcus epidermidis; assay: Antimicrobial activity against Staphylococcus epidermidis 12228 assessed as increase in absorbance incubated for 20 to 22 hrs; format: functional; settings: time 20-22 hrs
[9] = Hemolytic activity in healthy human RBC assessed as hemolysis incubated for 1 hr by microplate reader; format: toxicity, cell-based; settings: erythrocyte
HEK-293T = assay: Cytotoxicity against human HEK293T cells assessed as cell death measured after 18 to 24 hrs by MTT assay; format: functional; settings: time 18-24 hrs
Acinetobacter baumannii [10] = assay: Antimicrobial activity against Acinetobacter baumannii AB1901 assessed as increase in absorbance incubated for 20 to 22 hrs; format: functional; settings: time 20-22 hrs
Acinetobacter baumannii [11] = assay: Antimicrobial activity against Acinetobacter baumannii AB1902 assessed as increase in absorbance incubated for 20 to 22 hrs; format: functional; settings: time 20-22 hrs
Escherichia coli [12] = assay: Antimicrobial activity against Escherichia coli ATCC 25922 assessed as increase in absorbance incubated for 20 to 22 hrs in presence of Fe3+ physiological salt; format: functional, organism-based; settings: time 20-22 hrs
Escherichia coli [13] = assay: Antimicrobial activity against Escherichia coli ATCC 25922 assessed as increase in absorbance incubated for 20 to 22 hrs in presence of Mg2+ physiological salt; format: functional, organism-based; settings: time 20-22 hrs
Escherichia coli [14] = assay: Antimicrobial activity against Escherichia coli ATCC 25922 assessed as increase in absorbance incubated for 20 to 22 hrs in presence of […] physiological salt; format: functional, organism-based; settings: time 20-22 hrs
Escherichia coli [15] = assay: Antimicrobial activity against Escherichia coli ATCC 25922 assessed as increase in absorbance incubated for 4 hrs in presence of 50% serum; format: functional, organism-based
Escherichia coli [16] = assay: Antimicrobial activity against Escherichia coli ATCC 25922 assessed as increase in absorbance at 8 mg/ml incubated for 8 hrs in presence of pepsin; format: functional, organism-based
Trypsin [17] = molecular target: T1, Trypsin (Homo sapiens, UniProt P07477+P07478+P35030); assay: Stability of compound assessed as trypsin (unknown origin)-mediated compound structural integrity change at 8 mg/ml incubated for 1 to 8 hrs by 16.5% tricine-SDS-PAGE analysis; format: ADME, protein assay; settings: time 1-8 hrs
[18] = Stability of compound assessed as pepsin (unknown origin)-mediated compound structural integrity change at 8 mg/ml incubated for 1 to 8 hrs by 16.5% tricine-SDS-PAGE analysis; format: ADME; settings: human, time 1-8 hrs
Trypsin [19] = molecular target: T1, Trypsin; assay: Stability of compound assessed as trypsin (unknown origin)-mediated compound structural integrity change at 8 mg/ml incubated for 1 to 8 hrs by RP-HPLC analysis; format: ADME, protein assay; settings: time 1-8 hrs
[20] = Stability of compound assessed as pepsin (unknown origin)-mediated compound structural integrity change at 8 mg/ml incubated for 1 to 8 hrs by RP-HPLC analysis; format: ADME; settings: human, time 1-8 hrs
Lipopolysaccharide (LPS) = assay: Binding affinity to Escherichia coli O111:B4 Lipopolysaccharide by fluorescent probe BODIPYTR-cadaverine (BC) assay; settings: dose 1-16 µM
Escherichia coli [21] = assay: Antimicrobial activity against Escherichia coli ATCC 25922 assessed as increase in absorbance at MIC concentration in presence of < 8 ug/ml Lipopolysaccharide incubated for 8 hrs; format: functional, organism-based; settings: dose < 8.0 µg/ml
Cell membrane = assay: Induction of cytoplasmic membrane (CM) permeabilization in Escherichia coli ATCC 25922 assessed as utilization of ONPG at 1/2 MIC; format: subcellular
Escherichia coli [22] = assay: Induction of membrane damage in Escherichia coli ATCC 25922 assessed as damaged membrane surface (irregular vesicles protrusions) at 8 uM measured after 1 hr incubation by SEM analysis; format: functional, organism-based
Escherichia coli [23] = assay: Induction of membrane damage in Escherichia coli ATCC 25922 assessed as damaged membrane surface by analysing leakage (hollow interiors) at 8 uM measured after 1 hr incubation by TEM analysis; format: functional, organism-based
Escherichia coli [24] = assay: Induction of membrane damage in Escherichia coli ATCC 25922 assessed as ruptured membrane by analysing red fluorescence at 8 uM measured after 1 hr incubation by PI - live and dead staining based fluorescence microscopy; format: functional, organism-based
Escherichia coli [25] = assay: Induction of membrane damage in Escherichia coli ATCC 25922 assessed as ruptured membrane by analysing green fluorescence at 8 uM measured after 1 hr incubation by SYTO - live and dead staining based fluorescence microscopy; format: functional, organism-based
Escherichia coli [26] = assay: Resistance fold, ratio of MIC for Escherichia coli ATCC 25922 measured after 30 day passage period to MIC for Escherichia coli ATCC 25922; format: functional
[27] = Toxicity in ICR mouse assessed as reduced mobility at 20 mg/kg, ip measured within 1 hr; format: organism-based; settings: in vivo
[28] = Toxicity in ICR mouse assessed as body weight change at 5 to 20 mg/kg, ip measured after 3 days; format: organism-based; settings: in vivo, 72 h, dose 5-20 mg/kg, time 3 day
[29] = Toxicity in ICR mouse assessed as kidney weight change at 5 to 20 mg/kg, ip measured after 3 days; format: organism-based; settings: in vivo, 72 h, dose 5-20 mg/kg, time 3 day
[30] = Toxicity in ICR mouse assessed as alkaline phosphatase (ALP) level in serum at 5 to 20 mg/kg, ip measured after 3 days; format: organism-based; settings: in vivo, 72 h, dose 5-20 mg/kg, time 3 day
Escherichia coli [31] = assay: Antibacterial activity against Escherichia coli ATCC 25922 injected intraperitoneally in ICR mouse assessed as reduction bacterial load in kidney at 10 mg/kg, ip measured after 12 hrs by H and E staining based assay; format: functional, organism-based
Mus musculus = assay: Anti-inflammatory activity against Escherichia coli ATCC 25922-induced peritonitis ICR mouse model assessed as decrease in IL-6 level in serum spleen at 10 mg/kg, ip measured after 12 hrs; format: functional, organism-based
Escherichia coli [32] = assay: Antibacterial activity against Escherichia coli ATCC 25922 injected intraperitoneally in ICR mouse assessed as reduction in symptoms by measuring atrophied red medulla in spleen at 10 mg/kg, ip measured after 12 hrs by H and E staining based assay; format: functional, organism-based
Escherichia coli [33] = assay: Antibacterial activity against Escherichia coli ATCC 25922 injected intraperitoneally in ICR mouse assessed as reduction in symptoms by measuring thickened respiratory membrane in lung at 10 mg/kg, ip measured after 12 hrs by H and E staining based assay; format: functional, organism-based

In the case of `CCCCCCCCCC(=O)NCCCC[C@H](N)C(=O)NCC(=O)NCC(=O)NCC(=O)N[C@H](CCCNC(=N)N)C(=O)N[C@@H](CCCNC(=N)N)C(=O)N[C@@H](CCCNC(=N)N)C(=O)N1CCC[C@H]1C(=O)N[C@@H](CSSC[C@H](NC(=O)[C@@H]1CCCN1C(=O)[C@H](CCCNC(=N)N)NC(=O)[C@H](CCCNC(=N)N)NC(=O)[C@@H](CCCNC(=N)N)NC(=O)CNC(=O)CNC(=O)CNC(=O)[C@@H](N)CCCCNC(=O)CCCCCCCCC)C(=O)O)C(=O)O`, the MIC (Escherichia coli [1]) is reported as 4 µM (≈ 9.12 µg/mL), the MIC (Escherichia coli [2]) is reported as 2 µM (≈ 4.56 µg/mL) and the MIC (Escherichia coli [3]) is reported as 4 µM (≈ 9.12 µg/mL). The MIC (Salmonella typhimurium [4]) was 4 µM (≈ 9.12 µg/mL), the MIC (Salmonella typhimurium [5]) was 4 µM (≈ 9.12 µg/mL) and the MIC (Pseudomonas aeruginosa) was 4 µM (≈ 9.12 µg/mL). The MIC (Staphylococcus aureus [6]) was 8 µM (≈ 18.2 µg/mL), the MIC (Enterococcus faecalis) was 4 µM (≈ 9.12 µg/mL) and the MIC (Staphylococcus aureus [7]) was 4 µM (≈ 9.12 µg/mL). It also gave an MIC [8] of 8 µM (≈ 18.2 µg/mL), an HC10 [9] of 256 µM and an IC10 (HEK-293T) of 256 µM. The MIC (Acinetobacter baumannii [10]) was 4 µM (≈ 9.12 µg/mL), the MIC (Acinetobacter baumannii [11]) was 8 µM (≈ 18.2 µg/mL) and the Activity (Escherichia coli [12]) was “Active; C-C10)C-C Demonstrated Superior Physiological Salt Tolerance In Comparison To (N-C10)C-C”. For the same compound, the Activity (Escherichia coli [13]) was “Active; C-C10)C-C Demonstrated Superior Physiological Salt Tolerance In Comparison To (N-C10)C-C”, the Activity (Escherichia coli [14]) was “Active; C-C10)C-C Demonstrated Superior Physiological Salt Tolerance In Comparison To (N-C10)C-C” and the Activity (Escherichia coli [15]) was “Active”. The Activity (Escherichia coli [16]) was “Active; Negligible Alteration In Mic Values Found”, the Stability (Trypsin [17]) was “Stable” and the Stability [18] was “Stable”. For the same compound, the Stability (Trypsin [19]) was “Stable”, the Stability [20] was “Stable” and the Activity (Lipopolysaccharide (LPS)) was “Dose-dependent-effect”. For the same compound, the Activity (Escherichia coli [21]) was “Active”, the Activity (Cell membrane) was “Active” and the Activity (Escherichia coli [22]) was “Active”. The Activity (Escherichia coli [23]) was “Active”, the Activity (Escherichia coli [24]) was “Active” and the Activity (Escherichia coli [25]) was “Active”. The “fold change (FC)” value (Escherichia coli [26]) was “<=2”, the Activity [27] was “Toxic” and the Activity [28] was “Non-toxic”. The Activity [29] was “Non-toxic”, the Activity [30] was “Non-toxic” and the Activity (Escherichia coli [31]) was “Active”. For the same compound, the Activity (Mus musculus) was “Active”, the Activity (Escherichia coli [32]) was “Active” and the Activity (Escherichia coli [33]) was “Active”.
